Key:
[1] = test system: BaF3; assay: Antiproliferative activity against mouse BaF3 cells stably expressing KIF5B-RET incubated for 72 hrs by CCK8 assay; type: functional, cell-based; settings: BaF3, 72 h
[2] = test system: BaF3; assay: PROTAC activity at VHL/KIF5B-RET (unknown origin) expressed in mouse BaF3 cells assessed as induction of RET degradation at 10 nM incubated for 24 hrs by immunoblot analysis relative to control; type: cell-based
[3] = test system: BaF3; assay: Antiproliferative activity against mouse BaF3 cells stably expressing KIF5B-RET V804M mutant incubated for 72 hrs by CCK8 assay; type: functional, cell-based; settings: BaF3, 72 h
[4] = test system: BaF3; assay: Antiproliferative activity against mouse BaF3 cells stably expressing KIF5B-RET G810C mutant incubated for 72 hrs by CCK8 assay; type: functional, cell-based; settings: BaF3, 72 h
[5] = test system: BaF3; assay: Antiproliferative activity against mouse BaF3 cells stably expressing KIF5B-RET G810R mutant incubated for 72 hrs by CCK8 assay; type: functional, cell-based; settings: BaF3, 72 h
[6] = test system: BaF3; assay: Antiproliferative activity against mouse BaF3 cells stably expressing KIF5B-RET G810S mutant incubated for 72 hrs by CCK8 assay; type: functional, cell-based; settings: BaF3, 72 h
[7] = test system: BaF3; assay: Induction of degradation of KIF5B-RET (unknown origin) expressed in mouse BaF3 cells at 10 nM incubated for 24 hrs by immunoblot analysis relative to control; type: cell-based; settings: Homo sapiens
[8] = test system: BaF3; assay: PROTAC activity at CRBN/KIF5B-RET (unknown origin) expressed in mouse BaF3 cells assessed as induction of RET degradation at 10 nM incubated for 24 hrs by immunoblot analysis relative to control; type: cell-based
[9] = biological target: Proto-oncogene tyrosine-protein kinase receptor Ret (Homo sapiens, UniProt P07949); assay: Inhibition of RET (unknown origin) preincubated for 10 mins followed by substrate/ATP addition measured after 30 mins by HTRF assay
Proto-oncogene tyrosine-protein kinase receptor Ret, sequence (P07949 whole entry): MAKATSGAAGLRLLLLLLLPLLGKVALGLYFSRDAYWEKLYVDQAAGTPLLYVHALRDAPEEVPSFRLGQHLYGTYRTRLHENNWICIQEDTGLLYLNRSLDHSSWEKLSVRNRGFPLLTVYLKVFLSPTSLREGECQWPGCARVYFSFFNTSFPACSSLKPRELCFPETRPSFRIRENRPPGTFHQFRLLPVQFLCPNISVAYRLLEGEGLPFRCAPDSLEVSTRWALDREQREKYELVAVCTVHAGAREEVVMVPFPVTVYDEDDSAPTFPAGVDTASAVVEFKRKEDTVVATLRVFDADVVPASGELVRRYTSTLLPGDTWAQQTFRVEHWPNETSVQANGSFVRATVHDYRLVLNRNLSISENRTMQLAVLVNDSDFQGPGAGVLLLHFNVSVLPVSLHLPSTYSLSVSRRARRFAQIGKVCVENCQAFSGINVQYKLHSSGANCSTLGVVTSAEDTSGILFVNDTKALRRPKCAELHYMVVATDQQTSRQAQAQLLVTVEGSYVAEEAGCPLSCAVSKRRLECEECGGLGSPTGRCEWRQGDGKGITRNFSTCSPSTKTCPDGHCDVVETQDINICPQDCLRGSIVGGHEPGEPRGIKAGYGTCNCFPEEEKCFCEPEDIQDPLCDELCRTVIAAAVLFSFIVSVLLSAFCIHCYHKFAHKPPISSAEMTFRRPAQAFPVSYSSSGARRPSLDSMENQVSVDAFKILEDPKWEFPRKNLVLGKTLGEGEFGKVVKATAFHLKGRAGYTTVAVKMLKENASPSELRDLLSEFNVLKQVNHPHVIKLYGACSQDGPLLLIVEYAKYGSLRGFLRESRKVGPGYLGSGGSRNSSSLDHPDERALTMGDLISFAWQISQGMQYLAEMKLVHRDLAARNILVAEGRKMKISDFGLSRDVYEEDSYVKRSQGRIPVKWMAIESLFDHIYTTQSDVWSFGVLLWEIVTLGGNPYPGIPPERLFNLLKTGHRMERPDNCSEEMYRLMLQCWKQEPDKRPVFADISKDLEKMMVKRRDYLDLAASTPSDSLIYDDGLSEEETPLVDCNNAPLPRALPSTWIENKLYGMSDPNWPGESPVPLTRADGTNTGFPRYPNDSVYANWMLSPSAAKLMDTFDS

IC50 [1] [nM] | IC50 [3] [nM] | IC50 [4] [nM] | IC50 [5] [nM] | IC50 [6] [nM] | IC50 [9] [nM] | SMILES | Activity [2] [%] | Activity [7] [%] | Activity [8] [%]
14.2 | 108 | 522 | 1880 | 674 | – | COc1ccc(CN2C3CC2CN(c2ccc(-c4cc(N5CCN(CCCCCCCCC(=O)N[C@H](C(=O)N6C[C@H](O)C[C@H]6C(=O)N[C@@H](C)c6ccc(-c7scnc7C)cc6)C(C)(C)C)CC5)cn5ncc(C#N)c45)cn2)C3)cn1 | 38 | – | –
177 | 372 | > 5000 | > 5000 | > 5000 | – | COc1ccc(CN2C3CC2CN(c2ccc(-c4cc(N5CCN(C(=O)CCCCCCC(=O)N[C@H](C(=O)N6C[C@H](O)C[C@H]6C(=O)N[C@@H](C)c6ccc(-c7scnc7C)cc6)C(C)(C)C)CC5)cn5ncc(C#N)c45)cn2)C3)cn1 | 17 | – | –
4.3 | 42.9 | 156 | 724 | 113 | – | COc1ccc(CN2C3CC2CN(c2ccc(-c4cc(N5CCC(N6CCNCC6)CC5)cn5ncc(C#N)c45)cn2)C3)cn1 | – | 0 | –
2.9 | 13.1 | 182 | 552 | 78.3 | 0.391 | COc1ccc(CN2C3CC2CN(c2ccc(-c4cc(N5CCC(N6CCN(C(=O)CCCCCNc7ccc8c(c7)C(=O)N(C7CCC(=O)NC7=O)C8=O)CC6)CC5)cn5ncc(C#N)c45)cn2)C3)cn1 (stereo not given) | – | – | 61
2.8 | 8.1 | 322 | 1110 | 52.6 | 0.215 | COc1ccc(CN2C3CC2CN(c2ccc(-c4cc(N5CCN(C6CN(c7ccc8c(c7)C(=O)N(C7CCC(=O)NC7=O)C8=O)C6)CC5)cn5ncc(C#N)c45)cn2)C3)cn1 (stereo not given) | – | – | 71
1.8 | 5.2 | 50.4 | 376 | 53.6 | 0.329 | COc1ccc(CN2C3CC2CN(c2ccc(-c4cc(N5CCC(N6CCN(C(=O)CCCCCNc7cccc8c7C(=O)N(C7CCC(=O)NC7=O)C8=O)CC6)CC5)cn5ncc(C#N)c45)cn2)C3)cn1 (stereo not given) | – | – | 72
1.9 | 11.5 | 145 | 1030 | 35.7 | 0.227 | COc1ccc(CN2C3CC2CN(c2ccc(-c4cc(N5CCN(CC6CN(c7ccc8c(c7)C(=O)N(C7CCC(=O)NC7=O)C8=O)C6)CC5)cn5ncc(C#N)c45)cn2)C3)cn1 (stereo not given) | – | – | 72
86.8 | 126 | 254 | > 5000 | 723 | – | COc1ccc(CN2C3CC2CN(c2ccc(-c4cc(N5CCN(CCC(=O)N[C@H](C(=O)N6C[C@H](O)C[C@H]6C(=O)N[C@@H](C)c6ccc(-c7scnc7C)cc6)C(C)(C)C)CC5)cn5ncc(C#N)c45)cn2)C3)cn1 | 29 | – | –
229 | 279 | 852 | > 5000 | > 5000 | – | COc1ccc(CN2C3CC2CN(c2ccc(-c4cc(N5CCN(CCCCC(=O)N[C@H](C(=O)N6C[C@H](O)C[C@H]6C(=O)N[C@@H](C)c6ccc(-c7scnc7C)cc6)C(C)(C)C)CC5)cn5ncc(C#N)c45)cn2)C3)cn1 | 15 | – | –
35.4 | 85.3 | 818 | 1330 | 552 | – | COc1ccc(CN2C3CC2CN(c2ccc(-c4cc(N5CCN(C(=O)CCCCCCCCCCC(=O)N[C@H](C(=O)N6C[C@H](O)C[C@H]6C(=O)N[C@@H](C)c6ccc(-c7scnc7C)cc6)C(C)(C)C)CC5)cn5ncc(C#N)c45)cn2)C3)cn1 | 24 | – | –

SMILES | IC50 [1] [nM] | IC50 [3] [nM] | IC50 [4] [nM] | IC50 [5] [nM] | IC50 [6] [nM] | IC50 [9] [nM] | Activity [2] [%] | Activity [7] [%] | Activity [8] [%]
COc1ccc(CN2C3CC2CN(c2ccc(-c4cc(N5CCNCC5)cn5ncc(C#N)c45)cn2)C3)cn1 | 5.6 | 36.1 | 107 | 770 | 98.6 | – | – | 0 | –
